According to the supplement of paper PMC10307832:

Key:
Assay in all cases: relative viability (nuclei count vs DMSO), 5 days (fraction); higher = more cells survive
[1] = compound: NS(=O)(=O)OC[C@@H]1C[C@@H](n2ccc3c(N[C@H]4CCc5ccccc54)ncnc32)C[C@@H]1O [MLN4924] + CC(=O)c1c(C)c2cnc(Nc3ccc(N4CCNCC4)cn3)nc2n(C2CCCC2)c1=O [Palbociclib] (partner 0.5 µM)
In short: (§1)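 For relative viability, nuclei counts in treated wells were divided by those in vehicle wells. Lung cancer cell lines had been pin-tool dosed in 1536-well plates the day after seeding and cultured for 5 days, then fixed and stained in one step (final 0.05% Triton X-100, 1% formaldehyde, 1 ug/ml Hoechst) and imaged at 4×. Doses were one drug alone or a fixed anchor-drug dose plus five library-drug doses (not always all listed) in √10 steps, and values are duplicate-plate medians.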

[2] = compound: C1CC(C1)(C(=O)O)C(=O)O.[NH2-].[NH2-].[Pt+2] [Carboplatin] + CC1(C)CCC(c2ccc(Cl)cc2)=C(CN2CCN(c3ccc(C(=O)NS(=O)(=O)c4ccc(N[C@H](CCN5CCOCC5)CSc5ccccc5)c(S(=O)(=O)C(F)(F)F)c4)cc3)CC2)C1 [Navitoclax] (partner 0.5 µM)
In short: as §1

[3] = compound: CC[C@H](C)N1C=C(C2=C(C=C(C=C21)C3=CN=C(C=C3)N4CCNCC4)C(=O)NCC5=C(C=C(NC5=O)C)C)C [GSK126] + CC(=O)c1c(C)c2cnc(Nc3ccc(N4CCNCC4)cn3)nc2n(C2CCCC2)c1=O [Palbociclib] (partner 0.5 µM)
In short: as §1

[4] = compound: C1CC(C1)(C(=O)O)C(=O)O.[NH2-].[NH2-].[Pt+2] [Carboplatin] + NC(=O)Nc1cc(-c2cccc(F)c2)sc1C(=O)N[C@H]1CCCNC1 [AZD7762] (partner 0.2 µM)
In short: as §1

Cell Line | relative viability ([1]; first compound 0.04 µM) | relative viability ([1]; first compound 0.1265 µM) | relative viability ([1]; first compound 0.4 µM) | relative viability ([1]; first compound 1.265 µM) | relative viability ([1]; first compound 4 µM) | relative viability ([2]; first compound 0.08 µM) | relative viability ([2]; first compound 0.253 µM) | relative viability ([2]; first compound 0.8 µM) | relative viability ([2]; first compound 2.53 µM) | relative viability ([2]; first compound 8 µM) | relative viability ([3]; first compound 0.08 µM) | relative viability ([3]; first compound 0.253 µM) | relative viability ([3]; first compound 0.8 µM) | relative viability ([3]; first compound 2.53 µM) | relative viability ([3]; first compound 8 µM) | relative viability ([4]; first compound 0.08 µM) | relative viability ([4]; first compound 0.253 µM) | relative viability ([4]; first compound 0.8 µM) | relative viability ([4]; first compound 2.53 µM) | relative viability ([4]; first compound 8 µM)
SK-MES-1 | 0.294 | 0.207 | 0.225 | 0.128 | 0.203 | 1.13 | 1.3 | 1.2 | 1.21 | 1.16 | 0.384 | 0.324 | 0.337 | 0.329 | 0.35 |  |  |  |  | 
NCI-H1648 | 0.256 | 0.231 | 0.371 | 0.259 | 0.302 |  |  |  |  |  | 0.291 | 0.357 | 0.275 | 0.288 | 0.293 | 0.662 | 0.62 | 0.538 | 0.696 | 0.539
PC-14 | 0.463 | 0.416 | 0.138 | 0.0525 | 0.0516 | 0.991 | 0.974 | 0.985 | 0.918 | 0.566 | 0.517 | 0.505 | 0.539 | 0.566 | 0.469 | 0.541 | 0.316 | 0.361 | 0.314 | 0.202
NCI-H1651 | 0.521 | 0.54 | 0.569 | 0.374 | 0.191 | 0.973 | 1.13 | 0.982 | 0.904 | 0.538 | 0.493 | 0.512 | 0.515 | 0.537 | 0.514 | 0.539 | 0.537 | 0.447 | 0.456 | 0.436
HOP-62 | 0.367 | 0.185 | 0.0998 | 0.0286 | 0.0302 | 1.04 | 1.08 | 0.789 | 0.902 | 0.748 | 0.501 | 0.372 | 0.468 | 0.398 | 0.444 | 0.793 | 0.665 | 0.669 | 0.608 | 0.497
HCC-44 | 1 | 0.756 | 0.793 | 0.636 | 0.45 | 0.949 | 0.99 | 0.914 | 0.786 | 0.874 | 0.96 | 1.04 | 1.01 | 0.916 | 0.894 | 1.06 | 1.03 | 1.02 | 1.01 | 0.992
HCC-15 | 0.477 | 0.172 | 0.196 | 0.0952 | 0.101 | 0.73 | 0.702 | 0.718 | 0.699 | 0.604 | 0.759 | 0.855 | 0.692 | 0.573 | 0.671 | 1.17 | 1.22 | 1.16 | 1.33 | 0.644
NCI-H460 | 0.189 | 0.121 | 0.0985 | 0.0213 | 0.0283 | 1.13 | 1.11 | 1.03 | 0.986 | 0.358 | 0.171 | 0.199 | 0.154 | 0.148 | 0.173 | 0.612 | 0.53 | 0.524 | 0.279 | 0.111
NCI-H1299 |  |  |  |  |  | 1.09 | 1.02 | 1.02 | 1.01 | 0.964 |  |  |  |  |  |  |  |  |  | 
SK-LU-1 | 0.467 | 0.43 | 0.253 | 0.195 | 0.202 | 0.824 | 0.774 | 0.946 | 0.872 | 0.387 | 0.402 | 0.364 | 0.412 | 0.389 | 0.414 |  |  |  |  | 
COR-L 105 | 0.414 | 0.395 | 0.337 | 0.321 | 0.34 | 0.66 | 0.809 | 0.595 | 0.822 | 0.531 | 0.42 | 0.423 | 0.421 | 0.377 | 0.415 |  |  |  |  | 
COR-L23 | 0.267 | 0.3 | 0.215 | 0.0984 | 0.105 | 0.992 | 0.883 | 0.838 | 0.84 | 0.443 | 0.307 | 0.265 | 0.259 | 0.279 | 0.352 |  |  |  |  | 
NCI-H3122 | 0.162 | 0.0893 | 0.129 | 0.0849 | 0.0684 | 1.03 | 0.988 | 1.01 | 1.02 | 0.97 | 0.225 | 0.181 | 0.181 | 0.183 | 0.187 | 1.04 | 1.01 | 0.946 | 0.974 | 0.885
NCI-H23 | 0.478 | 0.441 | 0.26 | 0.175 | 0.2 | 0.887 | 0.9 | 0.789 | 0.835 | 0.588 | 0.6 | 0.583 | 0.565 | 0.628 | 0.515 | 0.264 | 0.263 | 0.243 | 0.188 | 0.23
PC-3 [JPC-3] | 0.556 | 0.53 | 0.373 | 0.346 | 0.46 | 0.85 | 0.78 | 0.83 | 0.717 | 0.725 | 0.516 | 0.565 | 0.565 | 0.488 | 0.485 | 1.04 | 0.732 | 0.836 | 0.706 | 0.553
NCI-H2228 | 0.743 | 0.891 | 0.277 | 0.188 | 0.13 | 1.2 | 0.818 | 0.855 | 0.744 | 0.472 | 0.985 | 0.519 | 0.713 | 0.674 | 0.967 |  |  |  |  | 
A549 |  |  |  |  |  | 1.25 | 1.29 | 1.18 | 0.985 | 0.535 |  |  |  |  |  |  |  |  |  | 
NCI-H358 | 0.127 | 0.16 | 0.115 | 0.0864 | 0.0788 |  |  |  |  |  | 0.13 | 0.131 | 0.12 | 0.146 | 0.136 | 0.732 | 0.514 | 0.516 | 0.575 | 0.561
NCI-H2342 | 0.53 | 0.575 | 0.591 | 0.635 | 0.449 |  |  |  |  |  | 0.566 | 0.575 | 0.508 | 0.572 | 0.522 | 0.57 | 0.595 | 0.55 | 0.439 | 0.484
